Read-outs that look alike come from different tables or passages of the source.
Experiments:
Format in all cases: in vivo
Phytophthora infestans = settings: tomatoes, preventive spray, evaluated 3 days after inoculation
Venturia inaequalis = test: Venturia Test (Apples)/Preventive; settings: preventive spray, evaluated 10 days after inoculation
Alternaria solani = test: Alternaria Test (Tomatoes)/Preventive; settings: preventive spray, 100 ppm a.i., evaluated 3 days after inoculation

propineb [F180 propineb] was tested, and the “Efficacy in % found” value (Phytophthora infestans; Table A2, 10 ppm a.i.) was 23%.

In the case of mancozeb [F174 mancozeb], the “Efficacy in % found” value (Phytophthora infestans; Table A2, 10 ppm a.i.) is reported as 15% and the “Efficacy in % found” value (Venturia inaequalis; 20 ppm a.i.) is reported as 24%.

With `O=C(NCc1ncc(C(F)(F)F)cc1Cl)c1c(Cl)cccc1Cl` [F143 fluopicolide, fluopicolide] the “Efficacy in % found” value (Alternaria solani) was 0% and the “Efficacy in % found” value (Phytophthora infestans; Table A1, 5 ppm a.i.) was 32%.

With `N#Cc1c(Cl)c(Cl)c(Cl)c(C#N)c1Cl` [F155 chlorothalonil, chlorothalonil] the “Efficacy in % found” value (Venturia inaequalis; 10 ppm a.i.) was 43%.

Source: US10028509B2 (priority 2012, dated 2018)
